What was measured:
in vitro = settings: human, microsomes
[1] = system: TNF-α in LPS-challenged human PBMCs; assay: TNF-α in media of LPS-challenged human PBMCs; format: cell-based; settings: 10 ng/ml LPS, 24 h, 3-MP 0 to 30 μM, vs LPS alone
Method: Human peripheral blood mononuclear cells (PBMCs), purchased from ATCC (Cat no. PCS-800–011, Lot no. 81215231, Manassas, VA, USA), were washed with ice-cold HBSS (ATCC 30–2213) containing 10% fetal bovine serum (FBS: ATCC 30–2020) and used for the experiment directly. The washed cells were suspended and maintained in RPMI media supplemented with 10% FBS, penicillin 100 U/mL, and streptomycin 100 µg/mL at 37 °C and 5% CO2. Approximately 5 × 10^5 cells were seeded into 24-well plates and allowed to equilibrate for 2 h. Pomalidomide or 3-MP, dissolved in 100% tissue culture grade dimethylsulfoxide (DMSO: Sigma Aldrich, St Louis, MO, USA), was then added to the wells. The final concentrations of drugs were 0.0, 0.6, 1.0, 10, 30, and 60 µM (n = 3–4 for each group). At 1 h after initiation of treatment, the cells were challenged with lipopolysaccharide (LPS, Sigma Aldrich, E.Coli 055:B5, Cat no. L4005-100MG, Lot no. 0000218759, Endotoxin Unit: 500,000 EU/mg, at a concentration of 10 ng/mL), and the media was collected after a further 24 h for evaluation of lactate dehydrogenase (LDH) activity as a marker of drug-induced cellular toxicity and concentrations of nitrite (In Vitro Toxicology Assay Kit, Lactic Dehydrogenase based, Promega, Cat no. G7891, Madison, WI, USA) (Griess Reagent System, Promega, Cat no. G2930) and TNF-α (human TNF-α ELISA MAX™ Deluxe Set Cat no. […]

[2] = system: LPS-induced cytokines (TNF-α, IL-6, IL-10, IL-13) in plasma and cerebral cortex; assay: Systemic and brain LPS anti-inflammatory study in rats; format: in vivo; settings: rat, 4 h
Method: They were administered, via the intraperitoneal (I.P.) route, nano-formulated 3-MP at a dose of 13.25 or 26.5 mg/kg (equimolar to a clinically translatable dose of 12.5 and 25 mg/kg thalidomide), vehicle or pomalidomide (25 mg/kg). One hour later, animals were administered either LPS (1 mg/kg, E.Coli 055:B5, Sigma Aldrich, in normal saline, 0.5 mg/mL) or an alike volume of saline (without LPS) via the I.P. route. The LPS dose was selected from prior pilot studies to provide a substantial but sub-maximal rise in plasma proinflammatory cytokine levels, in line with our prior research. The selected 3-MP and pomalidomide doses were chosen as they are equimolar to, or are less than, doses of thalidomide and analogues that have been verified to be well tolerated in our previous studies and are of translational relevance to humans. Four hours after LPS administration, the animals were euthanized, and blood and brain tissues were collected and placed on wet ice. Plasma was quickly separated from blood by centrifugation (10,000 × g, 5 min, 4 °C) and together with the brain samples (cerebral cortex) was stored at − 80 °C. At a later time, cerebral cortex samples were sonicated in a TRIS-based lysis buffer (Mesoscale Discovery) with 3 × protease/phosphatase inhibitors (Halt™ Protease and Phosphatase Inhibitor Cocktail, Thermo Fisher Scientific, Waltham, MA, USA). Samples were then centrifuged (10,000 × g, 5 min, 4 °C), supernatant separated, and protein concentrations were quantified by bicinchoninic acid assay (BCA, Thermo Fisher Scientific). Rat plasma and cerebral cortex samples were analyzed by multi-proinflammatory cytokine ELISA (V-PLEX Proinflammatory Panel 2 Rat Kit, Mesoscale Discovery) following the manufacturer’s protocol to quantify TNF-α, IL-6, IL-10, and IL-13 levels.

[3] = 13.25 and 26.5 mg/kg I.P. 1 h before LPS 1 mg/kg I.P.

## Nc1cccc2c1C(=S)N(C1CCC(=O)NC1=O)C2=O (stereo not shown) [3-MP, 3-Monothiopomalidomide]
In vitro
  CLint scaled at 1 μM: < 8.6 mL/min/kg
  half-life at 1 μM: > 2.42 h
  microsomal CLint at 1 μM: < 9.6 µL/min/mg
[1]
  TNF-α levels in media: dose-dependently reduced
[2]; 3-MP both doses I.P., LPS 1 mg/kg
  LPS-mediated reduction in plasma IL-13: abated
[2]; 3-MP both doses and pomalidomide I.P., LPS 1 mg/kg
  LPS-mediated elevations in brain IL-13: maintained
[2]; 3-MP low dose 13.25 mg/kg I.P., pomalidomide 25 mg/kg I.P., LPS 1 mg/kg
  decline in IL-6 brain levels: failed to achieve statistical significance
[2]; [3]
  LPS-induced rise in plasma IL-6: reduced
  LPS-induced rise in plasma TNF-α: reduced
[2]; high- or low-dose 3-MP or pomalidomide I.P., LPS 1 mg/kg
  IL-10 elevation induced by LPS in plasma or brain: not lessened

From paper PMC12397098, “3-Monothiopomalidomide, a new immunomodulatory imide drug (IMiD), blunts inflammation and mitigates ischemic stroke in the rat” (GeroScience, 2025)
